# Values joined by “and” are separate entries in the source; they are usually repeats but may differ in a detail not shown here. Equal values may be shown once. Read-outs that look alike come from different tables or passages of the source.
# Experiments:
# [1] = Pharmacokinetics and absolute bioavailability in rats (LC-MS/MS); type: in vivo; conditions: rat; for MRT inf: read-out: MRT0-∞
# Excerpt: A LC-MS/MS method for determination of compound I-5 and compound M2 in rat plasma was established through experiments to investigate the pharmacokinetic characteristics and absolute bioavailability of compounds in rats.
# 20 SPF-grade SD male rats (body weight 220±20 g), purchased from Beijing Vital River Laboratory Animal Technology Co., Ltd.
# • Chromatographic column: waters BEH C18 1.7 μm; 2.1×100 mm Column • Internal standard: D-I-5 (deuterated compound I-5, with the following structural formula)
# 20 SD rats were randomly divided into 4 groups, with 5 rats in each group. […]
# 50 μL plasma was taken, 50 μL D-I-5 (20 ng/mL dissolved in acetonitrile) was added, the mixture was whirled for 30 s, then 100 μL acetonitrile was added; the mixture was fully whirled for 2 min, and was centrifuged at 4° C. at 12000 r/min for 3 min, 50 μL supernatant was taken, 50 μL aqueous solution was added for dilution, followed by whirling for Imin, and 4 μL sample was injected.
# The mean plasma concentration-time curves of rats after oral intragastric administration and intravenous administration were respectively shown in FIGS. 8 and 9. Data were processed using DAS 3.0 pharmacokinetic software (Chinese Professional Committee of Mathematical Pharmacology, Shanghai, China), and statistical moment parameters of the non-compartmental model were calculated, Cmax and Tmax being measured values.
# [2] = system: 5-HT reuptake in rat brain synaptosomes; assay: 3H-5-HT reuptake by rat brain synaptosomes; type: biochemical; conditions: 3H-5HT 10 nM, read-out: 5-HT inhibition rate % IC50
# Excerpt: At present, it is believed that absolute or relative deficiencies of the central monoamine neurotransmitters 5-hydroxytryptamine (5-HT), norepinephrine (NA) and dopamine (DA) are closely related to depression and anxiety.
# Synaptosomes were separated using methods in literature to prepare brain synaptosomes. SD rats were rapidly decapitated with a small animal decapitator. After decapitation, brains were taken out quickly and precooled in an ice-water mixture, and the pia mater and vascular tissue were removed. Brain tissue was taken out. 10 times volume (ml/g) of 10 mM Tris HCl buffer (containing 0.32 M sucrose, pH 7.4) was added, an ultrasonic cell pulverizer was used for homogenization (maintaining at a low temperature), and the brain tissue was homogenized and centrifuged for 10 min (4° C., 1,000 g). After balanced centrifugation (1500 g, 10 min) at 4° C., precipitate was discarded, then supernatant was taken, and centrifugation (20000 g) was performed again for 30 min. The supernatant was discarded and the precipitate, i.e. crude extract of synaptic corpuscles, was retained. […]
# The percentage inhibition of isotope ligand binding by each compound was calculated according to the following equation: […]
# [3] = male, SD, plasma, po, intragastric administration 12.5 mg/kg, n = 5
# [4] = male, SD, plasma, intravenous administration 2.5 mg/kg, n = 5
# [5] = male, Sprague-Dawley (SD), plasma, po, intragastric administration 12.5 mg/kg, n = 5
# [6] = male, Sprague-Dawley (SD), plasma, intravenous administration 2.5 mg/kg, n = 5
structure (smiles),measurement,setting,value
CC(C)CNC(=O)/C=C/c1cc2c(c(C(F)(F)F)c1)OCO2 [Compound I-5],bioavailability,"[1]; male, SD, plasma, oral, absolute bioavailability, intragastric 12.5 mg/kg vs intravenous 2.5 mg/kg, read-out: F (bioavailability, %)",24.1%
same,AUC(0-t),[1]; [3],523 ± 433 ng·h/mL
same,Tmax,[1]; [3],21 min
same,half-life,[1]; [3],55.8 ± 22.8 min
same,C0,[1]; [4],2050 ± 907 ng/mL
same,half-life,[1]; [4],39.6 ± 4.2 min
same,concentration at 0.08 h,"[1]; male, SD, plasma, iv, 2.5 mg/kg, single intravenous 2.5 mg/kg, 0.08 h, read-out: Plasma concentration, Mean",1150 ng/mL
same,concentration at 0.25 h,"[1]; male, SD, plasma, iv, 2.5 mg/kg, single intravenous 2.5 mg/kg, 0.25 h, read-out: Plasma concentration, Mean",393 ng/mL
same,concentration at 0.5 h,"[1]; male, SD, plasma, iv, 2.5 mg/kg, single intravenous 2.5 mg/kg, 0.50 h",152 ng/mL
same,concentration at 1 h,"[1]; male, SD, plasma, iv, 2.5 mg/kg, single intravenous 2.5 mg/kg, 1 h, read-out: Plasma concentration, Mean",60.3 ng/mL
same,concentration at 2 h,"[1]; male, SD, plasma, iv, 2.5 mg/kg, single intravenous 2.5 mg/kg, 2 h",16.8 ng/mL
same,concentration at 3 h,"[1]; male, SD, plasma, iv, 2.5 mg/kg, single intravenous 2.5 mg/kg, 3 h",6.9 ng/mL
same,concentration at 4 h,"[1]; male, SD, plasma, iv, 2.5 mg/kg, single intravenous 2.5 mg/kg, 4 h, read-out: Plasma concentration, Mean",3 ng/mL
same,concentration at 4 h,"[1]; male, SD, plasma, iv, 2.5 mg/kg, single intravenous 2.5 mg/kg, 4 h, read-out: Plasma concentration, individual rats",3.01 ng/mL
same,concentration at 0.08 h,"[1]; male, SD, plasma, oral, 12.5 mg/kg, single intragastric 12.5 mg/kg, 0.08 h, read-out: Plasma concentration, Mean",118 ng/mL
same,concentration at 0.25 h,"[1]; male, SD, plasma, oral, 12.5 mg/kg, single intragastric 12.5 mg/kg, 0.25 h, read-out: Plasma concentration, Mean",367 ng/mL
same,concentration at 0.5 h,"[1]; male, SD, plasma, oral, 12.5 mg/kg, single intragastric 12.5 mg/kg, 0.50 h",334 ng/mL
same,concentration at 1 h,"[1]; male, SD, plasma, oral, 12.5 mg/kg, single intragastric 12.5 mg/kg, 1 h, read-out: Plasma concentration, Mean",266 ng/mL
same,concentration at 2 h,"[1]; male, SD, plasma, oral, 12.5 mg/kg, single intragastric 12.5 mg/kg, 2 h",109 ng/mL
same,concentration at 3 h,"[1]; male, SD, plasma, oral, 12.5 mg/kg, single intragastric 12.5 mg/kg, 3 h",44.4 ng/mL
same,concentration at 4 h,"[1]; male, SD, plasma, oral, 12.5 mg/kg, single intragastric 12.5 mg/kg, 4 h, read-out: Plasma concentration, Mean",15.3 ng/mL
same,concentration at 6 h,"[1]; male, SD, plasma, oral, 12.5 mg/kg, single intragastric 12.5 mg/kg, 6 h",6.6 ng/mL
same,Cmax,"[1]; male, SD, plasma, po, 12.5 mg/kg, intragastric administration 12.5 mg/kg, n = 5, read-out: Cmax",361 ± 258 ng/mL
same,AUC(0-inf),[1]; [5],659 ± 371 ng·h/mL
same,MRT inf,[1]; [5],69.6 ± 7.2 min
same,AUC(0-inf),[1]; [6],438 ± 139 ng·h/mL
same,AUC(0-t),[1]; [6],436 ± 138 ng·h/mL
same,MRT inf,[1]; [6],22.2 ± 6.6 min
same,"Plasma concentration, individual rats","[1]; single intragastric 12.5 mg/kg, 0.08 h",140 ng/mL and 3.59 ng/mL and 70.1 ng/mL and 214 ng/mL and 164 ng/mL
same,"Plasma concentration, individual rats","[1]; single intragastric 12.5 mg/kg, 0.25 h",706 ng/mL and 7.11 ng/mL and 371 ng/mL and 389 ng/mL and 361 ng/mL
same,"Plasma concentration, individual rats","[1]; single intragastric 12.5 mg/kg, 0.50 h",735 ng/mL and 4.71 ng/mL and 416 ng/mL and 268 ng/mL and 246 ng/mL
same,"Plasma concentration, individual rats","[1]; single intragastric 12.5 mg/kg, 1 h",450 ng/mL and BQL and 391 ng/mL and 92.3 ng/mL and 132 ng/mL
same,"Plasma concentration, individual rats","[1]; single intragastric 12.5 mg/kg, 2 h",224 ng/mL and BQL and 134 ng/mL and 35.8 ng/mL and 43.0 ng/mL
same,"Plasma concentration, individual rats","[1]; single intragastric 12.5 mg/kg, 3 h",84.5 ng/mL and BQL and 58.4 ng/mL and 11.3 ng/mL and 23.6 ng/mL
same,"Plasma concentration, individual rats","[1]; single intragastric 12.5 mg/kg, 4 h",27.3 ng/mL and BQL and 17.3 ng/mL and 10.7 ng/mL and 6.16 ng/mL
same,"Plasma concentration, individual rats","[1]; single intragastric 12.5 mg/kg, 6 h",5.64 ng/mL and BQL and 3.20 ng/mL and 5.66 ng/mL and 12.2 ng/mL
same,"Plasma concentration, individual rats","[1]; single intragastric 12.5 mg/kg, 8 h",BOL and BQL (4×)
same,"Plasma concentration, individual rats","[1]; single intravenous 2.5 mg/kg, 0.08 h, 2.5 mg/kg",1750 ng/mL and 1150 ng/mL and 659 ng/mL and 865 ng/mL and 1350 ng/mL
same,"Plasma concentration, individual rats","[1]; single intravenous 2.5 mg/kg, 0.25 h, 2.5 mg/kg",628 ng/mL and 247 ng/mL and 540 ng/mL and 260 ng/mL and 291 ng/mL
same,"Plasma concentration, individual rats","[1]; single intravenous 2.5 mg/kg, 0.50 h, 2.5 mg/kg",243 ng/mL and 75.7 ng/mL and 225 ng/mL and 95.9 ng/mL and 120 ng/mL
same,"Plasma concentration, individual rats","[1]; single intravenous 2.5 mg/kg, 1 h, 2.5 mg/kg",103 ng/mL and 24.9 ng/mL and 80.2 ng/mL and 52.0 ng/mL and 41.6 ng/mL
same,"Plasma concentration, individual rats","[1]; single intravenous 2.5 mg/kg, 2 h, 2.5 mg/kg",25.1 ng/mL and 6.66 ng/mL and 19.3 ng/mL and 15.2 ng/mL and 17.7 ng/mL
same,"Plasma concentration, individual rats","[1]; single intravenous 2.5 mg/kg, 3 h, 2.5 mg/kg",8.95 ng/mL and 2.49 ng/mL and 9.76 ng/mL and 5.45 ng/mL and 7.89 ng/mL
same,"Plasma concentration, individual rats","[1]; single intravenous 2.5 mg/kg, 4 h, 2.5 mg/kg",BQL and 3.38 ng/mL and 2.60 ng/mL and 3.08 ng/mL
same,"Plasma concentration, individual rats","[1]; single intravenous 2.5 mg/kg, 6 h",BQL
same,"Plasma concentration, individual rats","[1]; single intravenous 2.5 mg/kg, 8 h",BQL
same,IC50,[2],18.5 ± 2.47 nM
